The values that follow are results of earlier work, collected in patent US20240197774A1, “Synthesis of Antimicrobial PVP-coated Bismuth Nanoparticles” (Board of Regents, The University of Texas System, priority 2021, published 2024).

This series concerns humans. The conditions noted are these: intake for years, considered non-toxic.

`[Bi]` [Bismuth]: the Intake was 5 to 20 g/day/kg.
